Laboratory results taken from US20230321063A1, “COMPOSITIONS AND METHODS TO REDUCE NEUROINFLAMMATION” (Seattle Children's Hospital d/b/a Seattle Children's …, priority 2020, published 2023).
Entries after “also recorded” stand apart in the source; their conditions may differ.

Columns and labels:
[1] = test system: Ndufs4(KO) mice; assay: Point-of-care blood glucose by age; format: in vivo, mouse
Text: (§1) Point-of-care glucose and lactate testing. Blood glucose and lactate measurements were collected using point-of-care meters (Prodigy Autocode® glucose meter, product #51850-3466188, Prodigy® Diabetes Care, LLC, Charlotte, NC; lactate assay meter, product #40828, Nova Biomedical, Waltham, MA) and the tail-prick method, as previously described (Stokes et al. Elife 2021; 10:e65400).

[2] = cited from earlier work
[3] = test system: Ndufs4(KO) mice; assay: Rotarod induced seizures; format: in vivo, mouse
Procedure: (§2) Rotarod and rotarod seizures. Rotarod assays were performed using a Med Associates Inc. (Fairfax, VT) ENV-571M single lane rotarod with a black mat installed in the floor of the lane to reduce visibility of the bottom. Assays were performed by placing animals onto an already rotating rod and timing latency to fall, with a steady rotation speed set to 6 rpm (controlled by attached laptop and Med Associates software). The maximum time of each trial was 10 min, with the trial ending at that time if mice were still on the rotarod. For each assay, three trials were performed, with a minimum of 5 min between each assay. The best of the three trials was reported for the rotarod data. As detailed in the text and figure legends, rotarod was performed each 10 days of age from P30; mice in a given age group were the reported age +/−1 day.
Mice were monitored throughout each assay for seizure activity, and rotarod performance trials were ended if a seizure was observed. […]

[4] = test system: Ndufs4(KO) mice; assay: Rotarod assay; format: in vivo, mouse; conditions: latency to fall up to 10 min, 6 rpm
Procedure: as §2

[5] = test system: Ndufs4(KO) mice; assay: Minimum Alveolar Concentration (MAC) of isoflurane associated with anesthesia; format: in vivo, mouse; conditions: 300 mg/kg/day, P30 Ndufs4(KO) animals
Text: In particular embodiments, effective amounts can be evidenced by reduced sensitivity to volatile anesthetics. Sensitivity to volatile anesthetics can be determined by measuring the minimum alveolar concentration (MAC). MAC provides a correlation between the dose of an anesthetic and immobility. (Lobo et al. (2020) StatPearls, World Wide Web at ncbi.nlm.nih.gov/books/NBK532974/). […] MAC can be expressed as volumes percent of alveolar (end-tidal) gas at one atmosphere pressure at sea level (i.e., 760 mm Hg). In particular embodiments, volatile anesthetics can include nitrous oxide, isoflurane, desflurane, halothane, and sevoflurane. Mice can be exposed to an anesthetic by using a vaporizer at a particular flow rate (e.g., 3-4 liters/min) through a humidifier in-line. […] In particular embodiments, sensitivity to volatile anesthetics can be reduced in a subject administered a composition including a therapeutically effective amount of an inhibitor of the disclosure, as compared to sensitivity to volatile anesthetics in the subject not administered the composition, as measured by a relevant test such as MAC.
To test whether leukocyte depletion might impact VA hypersensitivity, the Minimum Alveolar Concentration (MAC) of isoflurane associated with anesthesia in control and 300 mg/kg/day pexidartinib treated Ndufs4(KO) animals was assessed (see Experimental Methods in Example 1 for details). […]

[6] = test system: Ndufs4(KO) mice; assay: Longitudinal assessment of neurological disease symptoms (clasping, ataxia, circling); format: in vivo, mouse
Procedure: Longitudinal assessments of neurological disease symptoms. Clasping, ataxia, and circling were assessed by visual scoring, as previously described. As disease progresses in the Ndufs4(KO) mice animals display intermittent/transient improvement of symptoms. […] For observational assessments, lab-wide quality control discussions occurred frequently to ensure consistency between technicians/researchers. Technicians contributed equally to each treatment group to minimize any potential bias between individuals.

[7] = test system: control and Ndufs4(KO) mice; assay: Glucose tolerance test (GTT) and glucose induced lactate test; format: in vivo, mouse; conditions: 2 g/kg glucose IP; pexidartinib 300 mg/kg/d in chow, IPI-549 100 mg/kg/d in chow, rapamycin (ABI-009) 8 mg/kg/d IP
Text: as §1
Glucose tolerance test (GTT) and glucose induced lactate test. Prior to performing the GTT, mice were fasted for 4 hours, from 10 AM-2 PM. The fasting duration was limited to 4 hours given the sensitivity of untreated Ndufs4(KO) animals to hypoglycemia and related sequelae (dysregulation of body temperature, hypoglycemia induced seizure, etc.). For the ABI-009 cohort, mice received their daily ABI-009 treatment at the start of this fasting period. At the end of the 4 hour fast, baseline blood glucose and lactate values were collecting using point-of-care meters and the tail-prick method. Mice were then injected by IP with 2 g/kg dextrose (10 microliters/gram body weight of 200 mg/mL glucose in 1×PBS, 0.2 micron sterile filtered) using an insulin syringe (31-gauge, 6 mm length, 3/10 cc, BD Veo Ultra-Fine needle). Glucose and lactate levels were measured using a minimally invasive tail-prick method at designated timepoints post-injection.

[8] = test system: control and Ndufs4(KO) animals; assay: Observation of coat color under treatment; format: in vivo, mouse; conditions: higher doses (of 100, 200, 300 mg/kg/day) in chow
Procedure: To directly test this model, Ndufs4(KO) and control animals were treated with 100, 200, or 300 mg/kg/day pexidartinib in normal mouse chow (dosing is approximated based on food consumption, see Experimental Methods in Example 1).

FC(F)(F)c1ccc(CNc2ccc(Cc3c[nH]c4ncc(Cl)cc34)cn2)cn1 [pexidartinib, 5-[(5-chloro-1H-pyrrolo[2,3-b]pyridin-3-yl)methyl]-N-[[6-(trifluoromethyl)pyridin-3-yl]methyl]pyridin-2-amine]
hypoglycemia (blood glucose) [1]: prevented
liver damage ([2]; patients): known to cause liver damage
hair color in humans ([2]; reports in humans): hair whitening in humans
time-to-seizure ([3]; Ndufs4(KO) mice at P30, rotarod assay): markedly reduced
incidence of rotarod induced seizures ([3]; Ndufs4(KO) mice at P30, untreated 30%): markedly reduced
performance on rotarod assay [4]: rescued performance; also recorded: dose-dependent effect
hypersensitivity to sedation by isoflurane (MAC) [5]: modest, but statistically significant, attenuation
clasping, ataxia, circling endpoints compared with mTOR inhibition ([6]; 200 mg/kg/day): roughly matched mTOR inhibition
clasping, ataxia, circling endpoints compared with mTOR inhibition ([6]; 300 mg/kg/day): performed substantially better
neurologic disease onset and severity as measured by clasping ([6]; 100, 200, and 300 mg/kg/day): affect neurologic disease onset and severity
onset of symptoms: forelimb clasping, ataxia, and circling ([6]; Ndufs4(KO) mice vs untreated): dose-dependently delayed the onset and reduced overall incidence
blood lactate spike in response to a glucose bolus [7]: prevented this spike in blood lactate
coat/fur color [8]: turns fur white; also recorded: change in mouse coat color
coat/fur color ([8]; listed as Pexidartinib): caused animal fur to whiten
